Test results as given in patent US20260265238A1, “COMPOUNDS AND PHARMACEUTICAL COMPOSITIONS THAT DEGRADE SWI/SNF-RELATED MATRIX-ASSOCIATED ACTIN-DEPENDENT REGULATOR OF CHROMATIN SUBFAMILY A” (Plexium, Inc., priority 2023, published 2026).

Tests used:
[1] = molecular target: T1, SMARCA4-HiBiT HeLa cells (protein which is expressed from the SMARCA4 gene) (Homo sapiens, UniProt P51532); test: SMARCA4 degradation assay (HiBiT-fusion HeLa cell line, 24 h, luminescence); format: cell-based
T1 construct: protein which is expressed from the SMARCA2 and SMARCA4 genes; host or cells: HeLa (SMARCA4-HiBiT engineered line)
Procedure, shortened: (§1)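 SMARCA2- or SMARCA4-HiBiT HeLa cells seeded overnight at 37° C, then given compound as a 10-point dilution (typically 10 μM to 300 pM) for 24 h at 37° C. Protein level read by HiBiT lytic detection luminescence; DC50 from dose-response curves; degradation also scored at 1 μM.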

[2] = molecular target: T2, SMARCA2-HiBiT HeLa cells (protein which is expressed from the SMARCA2 gene) (Homo sapiens, UniProt P51531); test: SMARCA2 degradation assay (HiBiT-fusion HeLa cell line, 24 h, luminescence); format: cell-based
T2 construct: protein which is expressed from the SMARCA2 and SMARCA4 genes; host or cells: HeLa (SMARCA2-HiBiT engineered line)
Procedure, shortened: as §1

T1 sequence (P51532 whole entry, the tested form may be a part): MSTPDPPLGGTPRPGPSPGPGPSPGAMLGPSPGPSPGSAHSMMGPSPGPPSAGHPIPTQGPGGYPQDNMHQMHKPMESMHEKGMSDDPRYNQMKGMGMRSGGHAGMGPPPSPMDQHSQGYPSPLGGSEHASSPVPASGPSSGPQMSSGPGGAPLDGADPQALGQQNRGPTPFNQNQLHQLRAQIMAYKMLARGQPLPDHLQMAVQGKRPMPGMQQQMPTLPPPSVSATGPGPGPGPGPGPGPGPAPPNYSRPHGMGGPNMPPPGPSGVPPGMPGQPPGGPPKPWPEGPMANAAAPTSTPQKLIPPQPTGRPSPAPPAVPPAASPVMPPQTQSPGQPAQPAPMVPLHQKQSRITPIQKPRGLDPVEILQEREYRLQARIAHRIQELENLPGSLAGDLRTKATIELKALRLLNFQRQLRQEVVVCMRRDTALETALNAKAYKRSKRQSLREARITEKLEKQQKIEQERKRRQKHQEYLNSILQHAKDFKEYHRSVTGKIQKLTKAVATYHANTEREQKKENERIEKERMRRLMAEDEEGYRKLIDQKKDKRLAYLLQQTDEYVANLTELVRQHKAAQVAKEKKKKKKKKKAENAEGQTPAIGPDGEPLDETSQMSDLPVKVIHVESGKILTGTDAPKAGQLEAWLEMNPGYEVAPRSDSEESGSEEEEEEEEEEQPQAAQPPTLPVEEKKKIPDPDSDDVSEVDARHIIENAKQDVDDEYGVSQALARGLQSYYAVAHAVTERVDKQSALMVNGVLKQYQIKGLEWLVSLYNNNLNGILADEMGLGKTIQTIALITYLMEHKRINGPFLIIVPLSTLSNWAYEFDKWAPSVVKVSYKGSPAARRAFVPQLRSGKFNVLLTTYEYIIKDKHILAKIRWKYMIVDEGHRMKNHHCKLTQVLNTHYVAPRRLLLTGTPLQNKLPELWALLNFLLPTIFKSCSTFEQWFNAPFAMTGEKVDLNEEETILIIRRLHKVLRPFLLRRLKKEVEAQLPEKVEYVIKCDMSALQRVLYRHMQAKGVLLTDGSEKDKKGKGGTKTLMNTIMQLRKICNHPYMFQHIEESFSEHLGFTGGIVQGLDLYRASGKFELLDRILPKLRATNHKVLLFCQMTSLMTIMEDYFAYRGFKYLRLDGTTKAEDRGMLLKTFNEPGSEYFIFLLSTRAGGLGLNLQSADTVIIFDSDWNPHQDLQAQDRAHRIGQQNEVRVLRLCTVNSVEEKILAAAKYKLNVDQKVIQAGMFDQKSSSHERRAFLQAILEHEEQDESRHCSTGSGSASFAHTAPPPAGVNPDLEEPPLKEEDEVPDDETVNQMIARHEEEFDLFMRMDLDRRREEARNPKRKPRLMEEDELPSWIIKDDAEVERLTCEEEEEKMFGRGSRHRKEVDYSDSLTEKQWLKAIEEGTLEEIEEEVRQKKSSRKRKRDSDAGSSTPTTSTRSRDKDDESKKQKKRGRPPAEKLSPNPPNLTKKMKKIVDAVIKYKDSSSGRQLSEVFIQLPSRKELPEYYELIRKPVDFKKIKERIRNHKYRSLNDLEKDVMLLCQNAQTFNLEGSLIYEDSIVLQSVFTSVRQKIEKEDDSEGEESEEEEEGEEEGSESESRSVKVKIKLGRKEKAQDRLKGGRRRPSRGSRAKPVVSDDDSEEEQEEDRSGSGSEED
T2 sequence (P51531 whole entry, the tested form may be a part): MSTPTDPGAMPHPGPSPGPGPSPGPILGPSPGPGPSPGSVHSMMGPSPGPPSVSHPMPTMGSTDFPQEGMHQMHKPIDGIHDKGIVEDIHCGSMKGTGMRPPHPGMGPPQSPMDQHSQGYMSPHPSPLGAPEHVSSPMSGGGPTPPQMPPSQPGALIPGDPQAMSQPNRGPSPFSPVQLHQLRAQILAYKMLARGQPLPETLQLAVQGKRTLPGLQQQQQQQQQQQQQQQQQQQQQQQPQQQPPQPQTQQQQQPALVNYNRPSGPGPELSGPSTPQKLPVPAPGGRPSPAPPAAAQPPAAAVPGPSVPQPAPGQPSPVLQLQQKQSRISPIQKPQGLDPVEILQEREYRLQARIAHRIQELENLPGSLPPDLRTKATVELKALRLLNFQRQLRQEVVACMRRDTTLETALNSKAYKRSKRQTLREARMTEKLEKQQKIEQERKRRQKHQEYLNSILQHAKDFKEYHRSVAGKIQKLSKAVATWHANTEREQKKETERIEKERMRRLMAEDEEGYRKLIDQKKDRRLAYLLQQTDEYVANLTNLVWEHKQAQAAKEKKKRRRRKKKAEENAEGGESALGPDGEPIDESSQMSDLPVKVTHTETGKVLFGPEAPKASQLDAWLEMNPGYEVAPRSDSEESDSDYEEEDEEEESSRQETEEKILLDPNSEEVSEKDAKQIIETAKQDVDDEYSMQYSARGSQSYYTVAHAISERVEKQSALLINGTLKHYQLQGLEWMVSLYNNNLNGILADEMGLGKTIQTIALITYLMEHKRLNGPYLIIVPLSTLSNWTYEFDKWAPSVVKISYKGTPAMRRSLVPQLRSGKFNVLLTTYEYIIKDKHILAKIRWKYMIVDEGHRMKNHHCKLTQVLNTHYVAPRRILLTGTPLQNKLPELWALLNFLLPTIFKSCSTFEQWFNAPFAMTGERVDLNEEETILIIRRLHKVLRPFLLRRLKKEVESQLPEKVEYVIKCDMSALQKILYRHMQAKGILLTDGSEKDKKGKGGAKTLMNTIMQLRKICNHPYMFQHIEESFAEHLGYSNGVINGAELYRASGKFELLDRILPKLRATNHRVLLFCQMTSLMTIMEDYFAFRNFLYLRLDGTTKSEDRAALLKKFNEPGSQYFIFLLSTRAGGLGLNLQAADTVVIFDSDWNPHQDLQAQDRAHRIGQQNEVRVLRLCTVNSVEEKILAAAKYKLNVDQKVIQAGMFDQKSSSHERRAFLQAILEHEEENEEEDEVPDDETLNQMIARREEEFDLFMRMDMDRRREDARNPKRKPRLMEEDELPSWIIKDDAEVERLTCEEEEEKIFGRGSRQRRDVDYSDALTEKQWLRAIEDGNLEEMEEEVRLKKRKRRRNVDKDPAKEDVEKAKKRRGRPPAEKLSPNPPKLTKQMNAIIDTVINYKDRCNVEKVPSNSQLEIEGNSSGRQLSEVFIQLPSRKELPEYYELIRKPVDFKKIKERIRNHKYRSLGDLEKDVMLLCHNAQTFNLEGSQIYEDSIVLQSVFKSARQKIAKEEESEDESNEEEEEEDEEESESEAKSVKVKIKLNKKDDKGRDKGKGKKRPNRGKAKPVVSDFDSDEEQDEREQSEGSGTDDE

Row | Structure (SMILES) | DC50 [1] [nM] | inhibition at 1 µM ([1]; 1 μM) [%] | DC50 [2] [nM] | SMARCA2 % Degradation @ 1 μM ([2]; 1 μM) | inhibition at 1 µM ([1]; @ 1 μM) [%] | SMARCA2 % Degradation @ 1 μM ([2]; @ 1 μM)
1 | C[C@@H]1CCN(c2cc(-c3ccccc3O)nnc2N)CCN1c1cc(C#CCn2ccnc2)ncc1Cl [Compound P-408, 0-{5-[(R)-4-{5-chloro-2-[3-(1-imidazolyl)-1-propynyl]-4-pyridyl}-5-methyl-1,4-diazepan-1-yl]-6-amino-3-pyridazinyl} phenol] | 50 to 500 | 30 to 70 | 50 to 500 | ++ (++=30-70%) |  | 
2 | C[C@@H]1CCN(c2cc(-c3ccccc3O)nnc2N)CCN1c1ccnc(C#CCN2CCC3(CC2)COC3)n1 [Compound P-199, o-{5-[(R)-5-methyl-4-(2-{3-(2-oxa-7-aza-7-spiro[3.5]nonyl)-1-propynyl}-4-pyrimidinyl)-1,4-diazepan-1-y1]-6-amino-3-pyridazinyl}phenol] | 50 to 500 |  | 50 to 500 |  | 30 to 70 | +++ (+++=>70%)
3 | Nc1nnc(-c2ccccc2O)cc1N1CC2CCC(C1)N2c1ccnc(C#CCn2cccn2)n1 [Compound P-133, 2-(5-(8-(2-(3-(1H-pyrazol-1-yl)prop-1-yn-1-yl)pyrimidin-4-yl)-3,8-diazabicyclo[3.2.1]octan-3-yl)-6-aminopyridazin-3-yl)phenol] | 50 to 500 |  | 50 to 500 |  | 30 to 70 | ++ (++=30-70%)
4 | CN(C)CC#Cc1ncc(F)c(N2C3CCC2CN(c2cc(-c4ccccc4O)nnc2N)C3)n1 [Compound P-225, o-[6-amino-5-(8-{2-[3-(dimethylamino)-1-propynyl]-5-fluoro-4-pyrimidinyl}-3,8-diazabicyclo[3.2.1]oct-3-yl)-3-pyridazinyl]phenol] | < 50 |  | < 50 |  | 30 to 70 | ++ (++=30-70%)
5 | Nc1nnc(-c2ccccc2O)cc1N1CCCN(c2ccnc(/C=C/CNC(=O)c3cnc4ccccc4n3)n2)CC1 [Compound P-110, (E)-N-(3-(4-(4-(3-amino-6-(2-hydroxyphenyl)pyridazin-4-yl)-1,4-diazepan-1-yl)pyrimidin-2-yl)allyl)quinoxaline-2-carboxamide] | 50 to 500 |  | 50 to 500 |  | > 70 | +++ (+++=>70%)
6 | Cc1nn2ccn(CC#Cc3nccc(N4C5CCC4CN(c4cc(-c6ccccc6O)nnc4N)C5)n3)c(=O)c2c1C [Compound P-103, 5-(3-(4-(3-(3-amino-6-(2-hydroxyphenyl)pyridazin-4-yl)-3,8-diazabicyclo[3.2.1]octan-8-yl)pyrimidin-2-yl)prop-2-yn-1-yl)-2,3-dimethylpyrazolo[1,5-a]pyrazin-4(5H)-one] | 50 to 500 |  | 50 to 500 |  | 30 to 70 | +++ (+++=>70%)
7 | C[C@@H]1CCN(c2cc(-c3ccccc3O)nnc2N)CCN1c1ccnc(C#CCN2[C@@H]3CC[C@H]2C[C@@H](O)C3)n1 [Compound P-261, 8-[3-(4-{(R)-4-[3-amino-6-(o-hydroxyphenyl)-4-pyridazinyl]-7-methyl-1,4-diazepan-1-yl}-2-pyrimidinyl)-2-propynyl]-8-azabicyclo[3.2.1]octan-3-ol] | 50 to 500 |  | 50 to 500 |  | 30 to 70 | +++ (+++=>70%)
8 | C[C@@H]1CCN(c2cc(-c3ccccc3O)nnc2N)CCN1c1ccnc(C#CCN2CC[C@@H](F)C2)n1 [Compound P-236, o-{5-[(R)-4-(2-{3-[(R)-3-fluoro-1-pyrrolidinyl]-1-propynyl}-4-pyrimidinyl)-5-methyl-1,4-diazepan-1-yl]-6-amino-3-pyridaziny1} phenol] | < 50 |  | < 50 |  | < 30 | ++ (++=30-70%)
9 | C[C@@H]1CCN(c2cc(-c3ccccc3O)nnc2N)CCN1c1ccnc(C#CCn2cccc2)n1 [Compound P-191, o-{5-[(R)-5-methyl-4-{2-[3-(1-pyrrolyl)-1-propynyl]-4-pyrimidinyl}-1,4-diazepan-1-yl]-6-amino-3-pyridaziny1}phenol] | 50 to 500 |  | 50 to 500 |  | 30 to 70 | ++ (++=30-70%)
10 | CN(C)CC#Cc1nccc(N2C[C@H]3CC[C@@H](C2)[C@H]3Oc2cc(-c3ccccc3O)nnc2N)n1 [Compound P-156, o-{5-[(1R,5S,8r)-3-{2-[3-(dimethylamino)-1-propynyl]-4-pyrimidinyl}-3-azabicyclo[3.2.1]oct-8-yloxy]-6-amino-3-pyridazinyl}phenol] | 500 to 5000 |  | 50 to 500 |  | < 30 | ++ (++=30-70%)
11 | Nc1nnc(-c2ccccc2O)cc1N1C2CCC1CN(c1ccnc(C#CCn3cncn3)n1)C2 [Compound P-283, 0-[6-amino-5-(3-{2-[3-(1H-1,2,4-triazol-1-yl)-1-propynyl]-4-pyrimidinyl}-3,8-diazabicyclo[3.2.1]oct-8-yl)-3-pyridazinyl]phenol] | 50 to 500 |  | 50 to 500 |  | < 30 | ++ (++=30-70%)
12 | CN(C)CC#Cc1cc(N2C3CCC2CN(c2cc(-c4ccccc4O)nnc2N)CC3)ccn1 (stereo not shown) [Compound P-382, 0-[6-amino-5-(9-{2-[3-(dimethylamino)-1-propynyl]-4-pyridyl}-3,9-diazabicyclo[4.2.1]non-3-y1)-3-pyridazinyl]phenol] | < 50 | > 70 | < 50 | +++ (+++=>70%) |  | 
13 | Nc1nnc(-c2ccccc2O)cc1N1C[C@H]2C[C@@H]1CN2c1ccnc(C#CCN2CCCCC2)n1 [Compound P-285, 0-(5-{(1R,4R)-5-[2-(3-piperidino-1-propynyl)-4-pyrimidinyl]-2,5-diazabicyclo[2.2.1]hept-2-y1}-6-amino-3-pyridazinyl)phenol] | < 50 |  | < 50 |  | < 30 | ++ (++=30-70%)
14 | C[C@@H]1CCN(c2cc(-c3ccccc3O)nnc2N)CCN1c1ccnc(C#CCNc2ccn(C)n2)n1 [Compound P-331, 0-{5-[(R)-5-methyl-4-{2-[3-(1-methyl-3-pyrazolylamino)-1-propynyl]-4-pyrimidinyl}-1,4-diazepan-1-yl]-6-amino-3-pyridazinyl}phenol] | 50 to 500 |  | 50 to 500 |  | < 30 | ++ (++=30-70%)
15 | CC(C)(C)OC(=O)NCC#Cc1nccc(N2CC3=C(C2)CN(c2cc(-c4ccccc4O)nnc2N)C3)n1 [Compound P-259, 3-(4-{7-[3-amino-6-(o-hydroxyphenyl)-4-pyridaziny1]-3,7-diazabicyclo[3.3.0]oct-1(5)-en-3-y1}-2-pyrimidinyl)-2-propynylamino-tert-butylformylate] | < 50 |  | < 50 |  | 30 to 70 | ++ (++=30-70%)
16 | CC[C@@H](C)NCC#Cc1nccc(N2CCCN(c3cc(-c4ccccc4O)nnc3N)CC2)n1 [Compound P-274, 0-{5-[4-(2-{3-[(R)-1-methylpropylamino]-1-propynyl}-4-pyrimidinyl)-1,4-diazepan-1-yl]-6-amino-3-pyridazinyl}phenol] | 50 to 500 |  | 50 to 500 |  | 30 to 70 | +++ (+++=>70%)
